ChEMBL document CHEMBL1201862, “PubChem BioAssay data set” (2004)
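Protocol summary: plate cells (96-well), add compound at 5 concentrations, incubate 48 h, interpolate endpoints linearly. Here, GI50 denotes the concentration required for 50% inhibition of growth.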 Active and inactive are the calls of the source. Cut-off read from the data, not from the text of the source: active = GI50 up to about 1.1 µM and inactive = higher.

Key:
Assay in all cases: NCI-60 cell line screen, 48 h
[1] = system: OVCAR-5
[2] = system: CAKI-1
[3] = system: SF-295
[4] = system: SW-620
[5] = system: A498
[6] = system: SF-268
[7] = system: COLO 205
[8] = system: PC-3
[9] = system: BT-549
[10] = system: RXF 393
[11] = system: ACHN
[12] = system: SK-OV-3
[13] = system: T47D
[14] = system: RPMI-8226
[15] = system: HCC 2998
[16] = system: NCI-H23
[17] = system: HCT-116
[18] = system: HOP-92
[19] = system: A549
[20] = system: SK-MEL-5

| Compound | GI50 [1] | GI50 [2] | GI50 [3] | GI50 [4] | GI50 [5] | GI50 [6] | GI50 [7] | GI50 [8] | GI50 [9] | GI50 [10] | GI50 [11] | GI50 [12] | GI50 [13] | GI50 [14] | GI50 [15] | GI50 [16] | GI50 [17] | GI50 [18] | GI50 [19] | GI50 [20] |
| --- | --- | --- | --- | --- | --- | --- | --- | --- | --- | --- | --- | --- | --- | --- | --- | --- | --- | --- | --- | --- |
| O=C1Nc2ccccc2/C1=N/NS(=O)(=O)c1ccc(C(=O)O)cc1 | > 100 µM (inactive) | > 100 µM (inactive) | > 100 µM (inactive) | > 100 µM (inactive) | > 100 µM (inactive) | > 100 µM (inactive) | > 100 µM (inactive) | > 100 µM (inactive) | > 100 µM (inactive) | > 100 µM (inactive) | > 100 µM (inactive) | > 100 µM (inactive) | > 100 µM (inactive) | > 100 µM (inactive) | > 100 µM (inactive) | > 100 µM (inactive) | > 100 µM (inactive) | > 100 µM (inactive) | > 100 µM (inactive) | > 100 µM (inactive) |
| COc1cc(C2c3cc4c(cc3OC(NNC(N)=S)C2C)OCO4)cc(OC)c1OC (stereo not given) | – | 0.54 µM (active) | 0.231 µM (active) | 0.363 µM (active) | 0.191 µM (active) | 3.33 µM (inactive) | 0.277 µM (active) | 0.302 µM (active) | 0.804 µM (active) | 0.279 µM (active) | 0.989 µM (active) | 0.53 µM (active) | 26.1 µM (inactive) | 0.29 µM (active) | 0.906 µM (active) | 0.38 µM (active) | 0.244 µM (active) | 0.152 µM (active) | 0.644 µM (active) | 0.269 µM (active) |
| COc1cc(/C=N/NC(=O)c2c(Cl)c(Cl)c(Cl)c(Cl)c2-c2nc3ccccc3[nH]2)ccc1O | 27.9 µM (inactive) | 25.3 µM (inactive) | 24.1 µM (inactive) | 34.4 µM (inactive) | 27.5 µM (inactive) | 32.5 µM (inactive) | 22.3 µM (inactive) | 29.4 µM (inactive) | 21.1 µM (inactive) | 20.2 µM (inactive) | 21.4 µM (inactive) | 35.5 µM (inactive) | 0.56 µM (active) | – | 17.2 µM (inactive) | 19.9 µM (inactive) | 16.7 µM (inactive) | 10.8 µM (inactive) | 29.9 µM (inactive) | 14.9 µM (inactive) |
| O=c1[nH]nc(Cc2ccccc2)n1/N=C\c1ccccc1 | > 100 µM (inactive) | > 100 µM (inactive) | 43.9 µM (inactive) | > 100 µM (inactive) | > 100 µM (inactive) | > 10 µM (inactive) | > 100 µM (inactive) | > 100 µM (inactive) | > 100 µM (inactive) | 24.6 µM (inactive) | > 100 µM (inactive) | – | > 100 µM (inactive) | > 100 µM (inactive) | > 100 µM (inactive) | > 100 µM (inactive) | > 100 µM (inactive) | 46.2 µM (inactive) | > 100 µM (inactive) | > 100 µM (inactive) |
| Cn1cnc(N)c(N=O)c1=O | > 10 µM (inactive) | > 10 µM (inactive) | > 10 µM (inactive) | > 10 µM (inactive) | > 10 µM (inactive) | > 10 µM (inactive) | > 10 µM (inactive) | > 10 µM (inactive) | > 10 µM (inactive) | > 10 µM (inactive) | > 10 µM (inactive) | > 10 µM (inactive) | > 10 µM (inactive) | > 10 µM (inactive) | > 10 µM (inactive) | > 10 µM (inactive) | > 10 µM (inactive) | – | > 10 µM (inactive) | > 10 µM (inactive) |
| CC(=O)C1=C(C)N2C(=NC3=C(CCc4ccccc43)C2c2cccc(Br)c2)S1 (stereo not given) | > 100 µM (inactive) | – | > 100 µM (inactive) | > 100 µM (inactive) | > 100 µM (inactive) | > 100 µM (inactive) | 88.1 µM (inactive) | > 100 µM (inactive) | > 100 µM (inactive) | > 100 µM (inactive) | > 100 µM (inactive) | > 100 µM (inactive) | > 100 µM (inactive) | 16.8 µM (inactive) | 72.9 µM (inactive) | 99.1 µM (inactive) | 30.8 µM (inactive) | > 100 µM (inactive) | > 100 µM (inactive) | 41.3 µM (inactive) |
| CN(C)c1nc(N(C)C)nc(N(C)C23CC4CC(CC(C4)C2)C3)n1 | 21.4 µM (inactive) | > 100 µM (inactive) | 18.4 µM (inactive) | 34.4 µM (inactive) | > 100 µM (inactive) | 39.5 µM (inactive) | 15.1 µM (inactive) | 24.5 µM (inactive) | 27.7 µM (inactive) | 20 µM (inactive) | 41.3 µM (inactive) | 17.9 µM (inactive) | 31.4 µM (inactive) | 23.7 µM (inactive) | 39.6 µM (inactive) | 13.4 µM (inactive) | 20.5 µM (inactive) | 21.8 µM (inactive) | 39.3 µM (inactive) | – |
| CC(C)C/C=C/C1=NN(c2cccc(S(=O)(=O)O)c2)C2(C1)SCC(=O)N2c1nc2ccccc2s1 (stereo not given) | > 100 µM (inactive) | 66.8 µM (inactive) | – | 96.6 µM (inactive) | 27.7 µM (inactive) | 37.2 µM (inactive) | > 100 µM (inactive) | 40 µM (inactive) | 83.2 µM (inactive) | 98.4 µM (inactive) | 72.4 µM (inactive) | – | 5.43 µM (inactive) | 21.6 µM (inactive) | > 100 µM (inactive) | 99.5 µM (inactive) | 67.8 µM (inactive) | > 100 µM (inactive) | 89.1 µM (inactive) | 64 µM (inactive) |
| CSc1ncc2c(n1)-c1ccccc1OC2NC(C)(C)C (stereo not given) | 50.7 µM (inactive) | 35.7 µM (inactive) | 47.3 µM (inactive) | > 100 µM (inactive) | 2.62 µM (inactive) | 87.3 µM (inactive) | > 100 µM (inactive) | > 100 µM (inactive) | 44.9 µM (inactive) | 98.4 µM (inactive) | 92.9 µM (inactive) | 91.2 µM (inactive) | 55 µM (inactive) | 57.7 µM (inactive) | 21.3 µM (inactive) | > 100 µM (inactive) | > 100 µM (inactive) | 31.8 µM (inactive) | > 100 µM (inactive) | – |
| CC(C)C(C=O)C(O)(C(F)(F)F)C(F)(F)F (stereo not given) | > 100 µM (inactive) | > 100 µM (inactive) | > 100 µM (inactive) | > 100 µM (inactive) | > 100 µM (inactive) | – | > 100 µM (inactive) | > 100 µM (inactive) | > 100 µM (inactive) | > 100 µM (inactive) | > 100 µM (inactive) | > 100 µM (inactive) | > 100 µM (inactive) | > 100 µM (inactive) | > 100 µM (inactive) | > 100 µM (inactive) | > 100 µM (inactive) | > 100 µM (inactive) | > 100 µM (inactive) | > 100 µM (inactive) |
| CC(=O)NC1=C(C)C(=O)c2c(nc3n2CCC3OC(=O)c2ccccc2)C1=N (stereo not given) | 2.98 µM (inactive) | 1.84 µM (inactive) | 2.86 µM (inactive) | 1.63 µM (inactive) | 1.96 µM (inactive) | 2.18 µM (inactive) | 1.38 µM (inactive) | 1.32 µM (inactive) | 0.689 µM (active) | 1.29 µM (inactive) | 1.71 µM (inactive) | 3.36 µM (inactive) | 1.85 µM (inactive) | 1.31 µM (inactive) | 2.06 µM (inactive) | 1.46 µM (inactive) | 3.15 µM (inactive) | 2.15 µM (inactive) | 3.18 µM (inactive) | 1.42 µM (inactive) |
